Data taken from patent US20220152031A1, “PYRIDAZINONES AND METHODS OF USE THEREOF” (Goldfinch Bio, Inc., priority 2019, published 2022).

Molecular target: T1, TRPC5 (Homo sapiens, UniProt Q9UL62)
T1 construct: expressed in transfected cells
T1 sequence (Q9UL62 1-973): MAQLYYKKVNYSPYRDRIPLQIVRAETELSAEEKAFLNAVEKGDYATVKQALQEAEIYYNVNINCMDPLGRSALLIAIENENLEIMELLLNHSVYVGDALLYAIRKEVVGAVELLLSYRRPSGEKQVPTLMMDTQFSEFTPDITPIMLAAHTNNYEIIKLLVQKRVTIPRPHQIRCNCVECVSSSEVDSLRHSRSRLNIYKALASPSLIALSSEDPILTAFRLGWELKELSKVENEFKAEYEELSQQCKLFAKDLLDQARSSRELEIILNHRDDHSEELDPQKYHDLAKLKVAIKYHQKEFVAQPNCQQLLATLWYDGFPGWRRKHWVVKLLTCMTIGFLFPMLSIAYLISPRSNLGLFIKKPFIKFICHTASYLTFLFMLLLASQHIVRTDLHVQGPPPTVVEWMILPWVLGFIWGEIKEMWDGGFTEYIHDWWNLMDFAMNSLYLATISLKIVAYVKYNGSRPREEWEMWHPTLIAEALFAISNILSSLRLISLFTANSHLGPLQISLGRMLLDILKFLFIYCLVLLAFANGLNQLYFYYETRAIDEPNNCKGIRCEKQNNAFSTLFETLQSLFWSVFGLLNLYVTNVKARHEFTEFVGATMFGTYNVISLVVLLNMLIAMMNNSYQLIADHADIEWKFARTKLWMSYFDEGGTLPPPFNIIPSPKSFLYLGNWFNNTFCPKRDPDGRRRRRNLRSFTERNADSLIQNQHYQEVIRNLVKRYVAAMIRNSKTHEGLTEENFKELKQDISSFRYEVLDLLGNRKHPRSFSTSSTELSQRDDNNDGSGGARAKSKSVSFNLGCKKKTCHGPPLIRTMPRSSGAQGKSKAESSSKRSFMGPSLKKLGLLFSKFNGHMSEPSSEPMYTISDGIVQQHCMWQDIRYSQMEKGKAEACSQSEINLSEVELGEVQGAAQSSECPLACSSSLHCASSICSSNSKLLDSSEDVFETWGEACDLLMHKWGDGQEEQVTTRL
Assay: TRPC5 activity assay (FLIPR calcium fluorescence, HEK-TREx hTRPC5 cells)
Assay type: cell-based
Conditions: Table 6, HEK-TREx hTRPC5; read-out: hTRPC5-FLIPR IC50
Method: ICLN-1633 cells (HEK-TREx hTRPC5) expressing TRPC5 were generated as follows. Commercially available HekTrex-293 cells were seeded at 0.7×10^6 cells/well in a 1×6-well plate 24 hrs prior to transfection using 2 mL cell growth media containing no antibiotics (lx DMEM/high glucose (Hyclone #SH30022.02); 10% fetal bovine serum (Sigma) 2 mM sodium pyruvate, 10 mM HEPES). […] On day 2, 2 μg of plasmid DNA plus 6 μl of Xtreme-GENE HP reagent in Optimem (200 μl total volume) was prepared and incubated for 15 min at room temperature. This plasmid solution was then gently overlayed dropwise onto each well and the plate was gently swirled to mix complex with the media for approximately 30 seconds. Transfected cells were incubated at 37° C. in a 10% CO2 incubator for 24 hrs. The transfected cells were harvested and transferred into 2×150 mm dishes containing cell growth media with no antibiotics at 37° C.
The next day selection was initiated to generate a stable pool by adding cell growth media containing 150 μg/mL Hygromycin and 5 μg/mL Blasticidin and cells were allowed to grow. Media with the selection agent was changed every 1-2 days as needed to remove dead cells. After 7 days, the hygromycin concentration was reduced to 75 μg/mL and cells growth was allowed to continue.
Single clones were selected as follows. The stable pool was diluted to 10 cells/mL and seeded (100 μl/well) into 24×96 well plates (˜1 cell/well) and allowed to grow for 7 days in cell growth media. Fresh media (100 μl) was added and the cells allowed to grow for another 1-2 weeks and then stored frozen or used immediately.
10-point dose response curves were generated using the Echo-550 acoustic dispenser. Compound source plates were made by serially diluting compound stocks to create 10 mM, 1 mM, and 0.1 mM solutions in DMSO into Echo certified LDV plates. The Echo then serially spotted 100% DMSO stock solutions into source dose response plates to generate a 4-fold dilution scheme. 100% DMSO was added to the spotted dose response plates to bring the final volume to 5 μl. 300 nl of the dose response stock plate was then spotted into pre-incubation and stimulation assay plates. 50 μl of pre-incubation buffer and 100 μl of stimulation buffer was then added to the plates resulting in a final assay test concentration range of 30 μM to 0.0001 μM with a final DMSO concentration of 0.3%.
Human ICLN-1633 cells expressing were plated onto 384 well, black PDL-coated microplates and maintained in TRPC5 growth media the day prior to use for experiments. TRPC5 expression was induced by the application of 1 μg/mL tetracycline at the time of plating. […] Cells are incubated at room temperature, protected from light, for 60-90 minutes. After the incubation period, the dye is removed and replaced with 10 μl of EBSS. Cell, pre-incubation and stimulation plates are loaded onto the FLIPR-II and the assay is initiated. The FLIPR measures a 10 second baseline and then adds 10 μl of 2× compounds (or controls). Changes in fluorescence are monitored for an additional 5 minutes. After the 5 minute pre-incubation, 20 μl of 2× Riluzole (with 1× compound or controls) is added to the cell plate. The final Riluzole stimulation concentration in the assay is 30 μM. After the Riluzole addition, changes in fluorescence are monitored for an additional 5 minutes.
Compound modulation of TRPC5 calcium response was determined as follows. After the Englerin A, fluorescence was monitored for a 5-minute period. The maximum relative fluorescence response (minus the control response of 1 μM of an internal control compound known to maximally block TRPC5 calcium response, the “REF INHIB” in the formula below) was captured and exported from the FLIPR.
Compound effect is calculated as % inhibition using the following formula: […]
wherein “RFU” is the relative fluorescent units.

SMILES	IC50 [nM]
CC(c1ccc(F)cc1C(F)(F)F)N1CCN(c2cn[nH]c(=O)c2Cl)CC1=O (single isomer, unassigned) [MF]	0.01 to 1000
CCc1ncccc1N(CC)C1CCN(c2cn[nH]c(=O)c2Cl)CC1 [LW, 4-chloro-5-[4-[ethyl(2-ethylpyridin-3-yl)amino]piperidin-1-yl]-2,3-dihydropyridazin-3-one]	0.01 to 1000
CCc1ncccc1[C@H](C)N1CCN(c2cn[nH]c(=O)c2Cl)CC1 [LY, 4-chloro-5-[4-[(1S)-1-(2-ethylpyridin-3-yl)ethyl]piperazin-1-yl]-2,3-dihydropyridazin-3-one]	0.01 to 1000

Same assay, conditions: Table 7, HEK-TREx hTRPC5; read-out: TRPC5-FLIPR IC50

SMILES	IC50 [nM]
C[C@@H]1Cc2c(nnn2[C@H](C)c2ccccc2C(F)(F)F)CN1c1cn[nH]c(=O)c1Cl [MX, 4-chloro-5-[(6R)-6-methyl-1-[(1R)-1-[2-(trifluoromethyl)phenyl]ethyl]-1H,4H,5H,6H,7H-[1,2,3]triazolo[4,5-c]pyridin-5-yl]-2,3-dihydropyridazin-3-one]	0.01 to 1000
CN1CCN(C(=O)c2nn(Cc3ccccc3C(F)F)c3c2CN(c2cn[nH]c(=O)c2Cl)CC3)CC1 [OM]	0.01 to 1000
NC(=O)c1nn(Cc2ccccc2C(F)(F)F)c2c1CN(c1cn[nH]c(=O)c1Cl)CC2 [OP, 5-(5-Chloro-6-oxo-1,6-dihydropyridazin-4-yl)-1-[[2-(trifluoromethyl)phenyl]methyl]-1H,4H,5H,6H,7H-pyrazolo[4,3-c]pyridine-3-carboxamide]	0.01 to 1000
CN1CCN(Cc2nn(Cc3ccccc3C(F)F)c3c2CN(c2cn[nH]c(=O)c2Cl)CC3)CC1 [OU, 4-Chloro-5-(1-[[2-(difluoromethyl)phenyl]methyl]-3-[(4-methylpiperazin-1-yl)methyl]-1H,4H,5H,6H,7H-pyrazolo[4,3-c]pyridin-5-yl)-2,3-dihydropyridazin-3-one]	0.01 to 1000
CN(C)C(=O)c1nc2c(n1Cc1ccccc1C(F)(F)F)CCN(c1cn[nH]c(=O)c1Cl)C2 [PW]	0.01 to 1000
CN(c1ncc2c(n1)CN(c1cn[nH]c(=O)c1Cl)C2)c1ccccc1C(F)(F)F [QM]	0.01 to 1000

Tested on: human iPSC derived kidney organoids
Assay: Human iPSC derived kidney organoids with protamine sulfate injury
Assay type: cell-based
Conditions: pretreated 0.2, 2, 20 uM for 20 minutes, 300 ug/mL protamine sulfate 1 hour; vs protamine sulfate alone
Method: Human iPSC derived kidney organoids differentiated for 22 days [Generation of kidney organoids from human pluripotent stem cells. Takasato M, Er P X, Chiu H S, Little M H. Nat Protoc. 2016 September; 11(9):1681-92. doi: 10.1038/nprot.2016.098. Epub 2016 Aug. 18.] were pretreated with 0.2, 2, 20 uM of AO or DMSO for 20 minutes then insulted with 300 ug/mL of protamine sulfate for 1 hour; 3 technical replicate organoids were treated for each condition. Organoids were washed twice with 1×DPBS−/−, fixed in 4% PFA for 25 minutes at room temperature, washed twice with 1×DPBS−/−, and transferred to 30% sucrose at 4° C. overnight, then snap frozen in Tissue-Tek O.C.T. compound. Organoids were cryosectioned at […] thickness and stained for phalloidin. Tiled images were acquired using a Zeiss LSM880 Airyscan super resolution confocal microscope using ZEN 2.3. Mean intensity values were quantified using Fiji/ImagJ1.52d.

SMILES	injury from protamine sulfate (mean phalloidin intensity per organoid)
O=C1CN(c2cn[nH]c(=O)c2Cl)CCN1Cc1ccccc1C(F)(F)F [AO]	decreased injury
